Source: ChEMBL document CHEMBL1201862, “PubChem BioAssay data set” (2004)
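Tested at 5 concentrations; 48 h exposure; 96-well plates; endpoints linearly interpolated, else capped at highest concentration. GI50 marks 50% less growth.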 Calls of active or inactive are those of the source. No stated cut-off is given here; in the data, active = GI50 up to about 1.1 µM and inactive = higher.

Columns and labels:
Assay in all cases: growth of human tumour cells (NCI), 48 h
[1] = test system: MOLT-4
[2] = test system: HL-60
[3] = test system: CCRF-CEM
[4] = test system: SNB-75
[5] = test system: U-251
[6] = test system: NCI-H460
[7] = test system: OVCAR-4
[8] = test system: NCI/ADR-RES
[9] = test system: IGROV-1
[10] = test system: HCC 2998
[11] = test system: A549
[12] = test system: HCT-116
[13] = test system: MDA-MB-435
[14] = test system: SW-620
[15] = test system: NCI-H23
[16] = test system: SK-MEL-2
[17] = test system: OVCAR-8
[18] = test system: BT-549
[19] = test system: PC-3

| SMILES | GI50 [1] | GI50 [2] | GI50 [3] | GI50 [4] | GI50 [5] | GI50 [6] | GI50 [7] | GI50 [8] | GI50 [9] | GI50 [10] | GI50 [11] | GI50 [12] | GI50 [13] | GI50 [14] | GI50 [15] | GI50 [16] | GI50 [17] | GI50 [18] | GI50 [19] |
| --- | --- | --- | --- | --- | --- | --- | --- | --- | --- | --- | --- | --- | --- | --- | --- | --- | --- | --- | --- |
| COc1ccc(NC(=O)CC(=O)N2N=C(N3CCCCC3)CC2c2ccccc2)cc1 (stereo not given) | > 100 µM (inactive) | > 100 µM (inactive) | > 100 µM (inactive) | > 100 µM (inactive) | > 100 µM (inactive) | > 100 µM (inactive) | > 100 µM (inactive) | > 100 µM (inactive) | > 100 µM (inactive) | > 100 µM (inactive) | > 100 µM (inactive) | > 100 µM (inactive) | > 100 µM (inactive) | > 100 µM (inactive) | > 100 µM (inactive) | > 100 µM (inactive) | > 100 µM (inactive) | > 100 µM (inactive) | > 100 µM (inactive) |
| Cn1c2ccccc2n2c3ncccc3c(=O)c(C#N)c12 | 3.04 µM (inactive) | 2.09 µM (inactive) | 4.07 µM (inactive) | 12.2 µM (inactive) | 6.38 µM (inactive) | 2.46 µM (inactive) | 30.7 µM (inactive) | 16.3 µM (inactive) | 5.32 µM (inactive) | 21.5 µM (inactive) | 5.2 µM (inactive) | 4.81 µM (inactive) | 26.7 µM (inactive) | 7.85 µM (inactive) | 10.2 µM (inactive) | 35 µM (inactive) | 5.27 µM (inactive) | 16.5 µM (inactive) | 19.5 µM (inactive) |
| O=c1[nH]cnc2c1ncn2C1SC(CO)C(O)C1O (stereo not given) | > 100 µM (inactive) | > 100 µM (inactive) | > 100 µM (inactive) | > 100 µM (inactive) | > 100 µM (inactive) | > 100 µM (inactive) | > 100 µM (inactive) | > 100 µM (inactive) | > 100 µM (inactive) | > 100 µM (inactive) | > 100 µM (inactive) | > 100 µM (inactive) | > 100 µM (inactive) | > 100 µM (inactive) | > 100 µM (inactive) | > 100 µM (inactive) | > 100 µM (inactive) | > 100 µM (inactive) | > 100 µM (inactive) |
| Cc1cc(C)c(S(=O)(=O)N2CCCN(S(=O)(=O)c3c(C)cc(C)cc3C)OCCCON(S(=O)(=O)c3c(C)cc(C)cc3C)CCCN(S(=O)(=O)c3c(C)cc(C)cc3C)OCCCO2)c(C)c1 | > 100 µM (inactive) | 46.6 µM (inactive) | > 100 µM (inactive) | 70.3 µM (inactive) | > 100 µM (inactive) | > 100 µM (inactive) | > 100 µM (inactive) | > 100 µM (inactive) | > 100 µM (inactive) | > 100 µM (inactive) | > 100 µM (inactive) | > 100 µM (inactive) | > 100 µM (inactive) | > 100 µM (inactive) | > 100 µM (inactive) | > 100 µM (inactive) | > 100 µM (inactive) | > 100 µM (inactive) | > 100 µM (inactive) |
| CC[C@H](C)[C@H]1NC(=O)[C@@H](NC(=O)[C@@H](CC(C)C)N(C)CC2CCCN2C(=O)C(C)=O)[C@@H](C)OC(=O)[C@H](Cc2ccc(OC)cc2)N(C)C(=O)C2CCCN2C(=O)[C@H](CC(C)C)NC(=O)[C@@H](C)C(=O)[C@H](C(C)C)OC(=O)C[C@@H]1O (stereo not given in full) | < 0.0025 µM (active) | 0.00476 µM (active) | < 0.0025 µM (active) | 0.00317 µM (active) | < 0.0025 µM (active) | 0.00381 µM (active) | < 0.0025 µM (active) | 0.0179 µM (active) | < 0.0025 µM (active) | 0.00448 µM (active) | 0.00356 µM (active) | 0.00308 µM (active) | 0.00371 µM (active) | 0.00409 µM (active) | 0.00719 µM (active) | 0.00351 µM (active) | 0.00372 µM (active) | 0.0047 µM (active) | 0.00406 µM (active) |
